# In patent US20230062119A1, “USE OF BIOMARKERS IN IDENTIFYING PATIENTS THAT WILL BE RESPONSIVE TO TREATMENT WITH A PRMT5 INHIBITOR” (Merck Sharp & Dohme LLC, priority 2019, published 2023):
# Biological target: T1, Full-length (FL)-PRMT5-MEP50 enzyme complex (Homo sapiens, UniProt O14744)
# T1 construct: Full-length (FL)-PRMT5-MEP50 enzyme complex (recombinant proteins from baculovirus-transfected Sf21 cells: FL-PRMT5; MW=73837 kDa and FL-MEP50; MW=38614); made in house; host or cells: baculovirus-transfected Sf21 insect cells
# Test: PRMT5-MEP50 Enzyme Methylation Assay
# Type: biochemical
# Details: one EC50: 4 parameters single site sigmoidal model; EC50 1: first value of 7 parameters biphasic model; 1.0 nM PRMT5-MEP50, 75 nM biotinylated peptide, 15 μM SAM; read-out: Enzyme Methylation Assay (EC50 or EC50 1)
# Outline: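 Compound was pre-incubated 60 min at 37°C with 1.0 nM enzyme and 15 μM SAM (final) in 50 mM Bicine pH 8.0, then 75 nM biotinylated H4R3(Me1) peptide was added and reacted 150 min; twenty-point 1:2 titration from 100000 nM, 1% DMSO. Formic acid quench; SAMDI mass spectrometry measured Me1-to-Me2 conversion, EC50 by 4- or 7-parameter regression.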
# T1 sequence (O14744 whole entry): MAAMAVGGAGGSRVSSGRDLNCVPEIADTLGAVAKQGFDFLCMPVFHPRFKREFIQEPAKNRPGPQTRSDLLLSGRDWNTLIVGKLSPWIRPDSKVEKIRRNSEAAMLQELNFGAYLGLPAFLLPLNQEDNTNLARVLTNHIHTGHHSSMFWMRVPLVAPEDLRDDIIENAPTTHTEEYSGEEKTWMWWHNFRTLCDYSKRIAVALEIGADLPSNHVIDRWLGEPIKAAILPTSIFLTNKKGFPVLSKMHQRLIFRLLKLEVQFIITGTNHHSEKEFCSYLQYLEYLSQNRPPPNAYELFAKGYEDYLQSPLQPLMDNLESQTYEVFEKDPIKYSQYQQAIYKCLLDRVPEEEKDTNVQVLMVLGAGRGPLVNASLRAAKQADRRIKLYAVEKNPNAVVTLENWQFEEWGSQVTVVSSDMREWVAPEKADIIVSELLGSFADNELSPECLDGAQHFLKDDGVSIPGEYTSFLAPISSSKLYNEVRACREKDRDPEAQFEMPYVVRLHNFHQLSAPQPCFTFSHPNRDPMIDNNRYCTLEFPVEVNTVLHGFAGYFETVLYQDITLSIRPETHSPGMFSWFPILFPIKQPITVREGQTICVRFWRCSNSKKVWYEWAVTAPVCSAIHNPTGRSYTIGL
# T1 sequence (Q9BQA1 whole entry partner): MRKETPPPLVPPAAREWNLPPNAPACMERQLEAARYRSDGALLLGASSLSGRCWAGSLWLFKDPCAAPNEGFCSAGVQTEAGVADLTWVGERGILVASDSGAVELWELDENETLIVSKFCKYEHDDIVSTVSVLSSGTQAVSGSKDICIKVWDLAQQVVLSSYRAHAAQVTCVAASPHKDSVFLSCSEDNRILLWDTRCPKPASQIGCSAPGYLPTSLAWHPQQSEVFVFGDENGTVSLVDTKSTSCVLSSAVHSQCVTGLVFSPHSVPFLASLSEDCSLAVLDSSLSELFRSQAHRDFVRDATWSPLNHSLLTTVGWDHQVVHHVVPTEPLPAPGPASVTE
row,SMILES,EC50 [pM]
1,"Cc1ncnc2c1ccn2[C@@H]1O[C@@H]2[C@H](Cc3ccc4cc(Br)c(N)nc4c3)CC[C@]2(O)[C@H]1O [Example 8, (2R,3R,3aS,6S,6aR)-6-((2-amino-3-bromoquinolin-7-yl)methyl)-2-(4-methyl-7H-pyrrolo[2,3-d]pyrimidin-7-yl)hexahydro-2H-cyclopenta[b]furan-3,3a-diol]",500
2,"CNc1ncnc2c1ccn2[C@@H]1O[C@@H]2[C@H](Cc3ccc4cc(F)c(N)nc4c3)CC[C@]2(O)[C@H]1O [Example 95, (2R,3R,3aS,6S,6aR)-6-((2-amino-3-fluoroquinolin-7-yl)methyl)-2-(4-(methylamino)-7H-pyrrolo[2,3-d]pyrimidin-7-yl)hexahydro-3aH-cyclopenta[b]furan-3,3a-diol]",2800
3,"Nc1nc2cc(O[C@H]3CC[C@@]4(O)[C@@H]3C[C@@H](n3ccc5c(N)ncnc53)[C@@H]4O)ccc2cc1Br [Example 119, (1S,2R,3aR,4S,6aR)-4-((2-amino-3-bromoquinolin-7-yl)oxy)-2-(4-amino-7H-pyrrolo[2,3-d]pyrimidin-7-yl)hexahydropentalene-1,6a(1H)-diol 2,2,2-trifluoroacetate]",1000
4,"C[C@@]1(O)[C@@H](CCc2ccc3cc(Br)c(N)nc3c2)O[C@@H](n2ccc3c(N)ncnc32)[C@@H]1O [Example 14, (2R,3S,4R,5R)-2-(2-(2-amino-3-bromoquinolin-7-yl)ethyl)-5-(4-amino-7H-pyrrolo[2,3-d]pyrimidin-7-yl)-3-methyltetrahydrofuran-3,4-diol]",1300
5,"Cc1nc(N)nc2c1ccn2[C@@H]1O[C@@H]2[C@H](Cc3ccc4cc(Br)c(N)nc4c3)CC[C@]2(O)[C@H]1O [Example 127, (2R,3R,3aS,6S,6aR)-6-((2-amino-3-bromoquinolin-7-yl)methyl)-2-(2-amino-4-methyl-7H-pyrrolo[2,3-d]pyrimidin-7-yl)hexahydro-3aH-cyclopenta[b]furan-3,3a-diol]",700
6,"Nc1nc2cc(C[C@@H]3CC[C@@]4(O)[C@@H]3O[C@@H](n3ccc5c(C6CC6)ncnc53)[C@@H]4O)ccc2cc1Br [Example 87, (2R,3R,3aS,6S,6aR)-6-((2-amino-3-bromoquinolin-7-yl)methyl)-2-(4-cyclopropyl-7H-pyrrolo[2,3-d]pyrimidin-7-yl)hexahydro-3aH-cyclopenta[b]furan-3,3a-diol]",500
7,"Nc1nc2cc(O[C@H]3CC[C@@]4(O)[C@@H]3O[C@@H](n3ccc5c(N)ncnc53)[C@@H]4O)ccc2cc1Br [Example 6, (2R,3R,3aS,6S,6aR)-6-((2-amino-3-bromoquinolin-7-yl)oxy)-2-(4-amino-7H-pyrrolo[2,3-d]pyrimidin-7-yl)hexahydro-2H-cyclopenta[b]furan-3,3a-diol]",600
8,"Cc1ncnc2c1ccn2[C@@H]1O[C@@H]2[C@H](Cc3ccc4cc(C(F)F)c(N)nc4c3)CC[C@]2(O)[C@H]1O [Example 23, (2R,3R,3aS,6S,6aR)-6-((2-amino-3-(difluoromethyl)quinolin-7-yl)methyl)-2-(4-methyl-7H-pyrrolo[2,3-d]pyrimidin-7-yl)hexahydro-3aH-cyclopenta[b]furan-3,3a-diol]",400
9,"Nc1nc2cc(C[C@@H]3CC[C@@]4(O)[C@@H]3C[C@@H](n3ccc5c(N)ncnc53)[C@@H]4O)ccc2cc1Br [Example 41, (1S,2R,3aR,4S,6aR)-4-((2-amino-3-bromoquinolin-7-yl)methyl)-2-(4-amino-7H-pyrrolo[2,3-d]pyrimidin-7-yl)hexahydropentalene-1,6a(1H)-diol 2,2,2-trifluoroacetate]",700
10,"Nc1nc2cc(C[C@@H]3CC[C@@]4(O)[C@@H]3C[C@@H](n3cc(F)c5c(N)ncnc53)[C@@H]4O)ccc2cc1Br [Example 42, (1S,2R,3aR,4S,6aR)-4-((2-amino-3-bromoquinolin-7-yl)methyl)-2-(4-amino-5-fluoro-7H-pyrrolo[2,3-d]pyrimidin-7-yl)hexahydropentalene-1,6a(1H)-diol]",300
11,"Cc1nc(C)c2ccn([C@@H]3O[C@@H]4[C@H](Cc5ccc6cc(Br)c(N)nc6c5)CC[C@]4(O)[C@H]3O)c2n1 [Example 81, (2R,3R,3aS,6S,6aR)-6-((2-amino-3-bromoquinolin-7-yl)methyl)-2-(2,4-dimethyl-7H-pyrrolo[2,3-d]pyrimidin-7-yl)hexahydro-3aH-cyclopenta[b]furan-3,3a-diol]",700
12,"Cc1nc(N)c2ccn([C@@H]3C[C@@H]4[C@H](Cc5ccc6cc(F)c(N)nc6c5)CC[C@]4(O)[C@H]3O)c2n1 [Example 32, (1S,2R,3aR,4S,6aR)-2-(4-amino-2-methyl-7H-pyrrolo[2,3-d]pyrimidin-7-yl)-4-((2-amino-3-fluoroquinolin-7-yl)methyl)hexahydropentalene-1,6a(1H)-diol 2,2,2-trifluoroacetate]",400

# More lines, now with the values ahead:
row,EC50 [pM],SMILES
1,300,"Cc1cc2ccc(OC[C@H]3C[C@@H](n4ccc5c(C)ncnc54)[C@H](O)[C@]3(C)O)cc2nc1N [Example 106, (1R,2S,3R,5R)-5-(((2-amino-3-methylquinolin-7-yl)oxy)methyl)-1-methyl-3-(4-methyl-7H-pyrrolo[2,3-d]pyrimidin-7-yl)cyclopentane-1,2-diol]"
2,600,"Cc1ncnc2c1ccn2[C@@H]1O[C@@H]2[C@H](Cc3ccc4cc(Cl)c(N)nc4c3)CC[C@]2(O)[C@H]1O [Example 122, (2R,3R,3aS,6S,6aR)-6-((2-amino-3-chloroquinolin-7-yl)methyl)-2-(4-methyl-7H-pyrrolo[2,3-d]pyrimidin-7-yl)hexahydro-3aH-cyclopenta[b]furan-3,3a-diol]"
3,1200,"Nc1nc2cc(C[C@@H]3CC[C@@]4(O)[C@@H]3O[C@@H](n3cc(C(F)F)c5c(N)ncnc53)[C@@H]4O)ccc2cc1F [Example 51, (2R,3R,3aS,6S,6aR)-2-[4-amino-5-(difluoromethyl)-7H-pyrrolo[2,3-d]pyrimidin-7-yl]-6-[(2-amino-3-fluoroquinolin-7-yl)methyl]hexahydro-3aH-cyclopenta[b]furan-3,3a-diol]"
4,200,"Nc1nc2cc(O[C@H]3CC[C@@]4(O)[C@@H]3O[C@@H](n3cc(F)c5c(N)ncnc53)[C@@H]4O)ccc2cc1Br [Example 56, (2R,3R,3aS,6S,6aR)-6-((2-amino-3-bromoquinolin-7-yl)oxy)-2-(4-amino-5-fluoro-7H-pyrrolo[2,3-d]pyrimidin-7-yl)hexahydro-3aH-cyclopenta[b]furan-3,3a-diol]"
5,400,"Nc1ncnc2c1ccn2[C@@H]1O[C@@H]2[C@@H](Oc3ccc4ccc(NCC5CC5)nc4c3)CC[C@]2(O)[C@H]1O [Example 58, (2R,3R,3aS,6S,6aR)-2-(4-amino-7H-pyrrolo[2,3-d]pyrimidin-7-yl)-6-((2-((cyclopropylmethyl)amino)quinolin-7-yl)oxy)hexahydro-3aH-cyclopenta[b]furan-3,3a-diol]"
6,700,"Cc1ncnc2c1ccn2[C@@H]1C[C@](C)(CCc2ccc3cc(Br)c(N)nc3c2)[C@@H](O)[C@H]1O [Example 109, (1S,2R,3S,5R)-3-(2-(2-amino-3-bromoquinolin-7-yl)ethyl)-3-methyl-5-(4-methyl-7H-pyrrolo[2,3-d]pyrimidin-7-yl)cyclopentane-1,2-diol]"

# Same assay, conditions: second EC50 of 7 parameters biphasic model; 1.0 nM PRMT5-MEP50, 75 nM biotinylated peptide, 15 μM SAM; read-out: Enzyme Methylation Assay (EC50 2)
row,EC50 [pM],SMILES
1,116000,"Nc1nc2cc(O[C@H]3CC[C@@]4(O)[C@@H]3C[C@@H](n3ccc5c(N)ncnc53)[C@@H]4O)ccc2cc1Br [Example 119, (1S,2R,3aR,4S,6aR)-4-((2-amino-3-bromoquinolin-7-yl)oxy)-2-(4-amino-7H-pyrrolo[2,3-d]pyrimidin-7-yl)hexahydropentalene-1,6a(1H)-diol 2,2,2-trifluoroacetate]"
2,182000,"C[C@@]1(O)[C@@H](CCc2ccc3cc(Br)c(N)nc3c2)O[C@@H](n2ccc3c(N)ncnc32)[C@@H]1O [Example 14, (2R,3S,4R,5R)-2-(2-(2-amino-3-bromoquinolin-7-yl)ethyl)-5-(4-amino-7H-pyrrolo[2,3-d]pyrimidin-7-yl)-3-methyltetrahydrofuran-3,4-diol]"
